# Measurements published in the supplement of paper PMC10307832.
# Assays:
# Experiment in all cases: relative viability (nuclei count vs DMSO), 5 days (fraction); higher = more cells survive
# CX-5461 + Foretinib = compound: Cc1cnc(CNC(=O)c2c(=O)c3ccc(N4CCCN(C)CC4)nc3n3c2sc2ccccc23)cn1 [CX-5461] + COc1cc2c(Oc3ccc(NC(=O)C4(C(=O)Nc5ccc(F)cc5)CC4)cc3F)ccnc2cc1OCCCN1CCOCC1 [Foretinib] (partner 0.25 µM)
# Method in brief: (§1)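 Medians of duplicate plates are given as relative viability. That measure is the nuclei count in treated wells divided by the count in vehicle wells. Counts were taken on 4× images of lung cancer cell lines in 1536-well plates, 5 days after pin-tool dosing the day after seeding with one drug alone or a fixed anchor-drug dose plus five library-drug doses (not always all listed) in √10 steps.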
# IMD-0354 + OSI-027 = compound: O=C(Nc1cc(C(F)(F)F)cc(C(F)(F)F)c1)c1cc(Cl)ccc1O [IMD-0354] + COc1cccc2cc(-c3nc([C@H]4CC[C@H](C(=O)O)CC4)n4ncnc(N)c34)[nH]c12 [OSI-027] (partner 0.5 µM)
# Method in brief: as §1
# IMD-0354 + Lapatinib = compound: O=C(Nc1cc(C(F)(F)F)cc(C(F)(F)F)c1)c1cc(Cl)ccc1O [IMD-0354] + CS(=O)(=O)CCNCc1ccc(-c2ccc3ncnc(Nc4ccc(OCc5cccc(F)c5)c(Cl)c4)c3c2)o1 [Lapatinib] (partner 2 µM)
# Method in brief: as §1
# IMD-0354 + Pemetrexed = compound: O=C(Nc1cc(C(F)(F)F)cc(C(F)(F)F)c1)c1cc(Cl)ccc1O [IMD-0354] + Nc1nc2[nH]cc(CCc3ccc(C(=O)N[C@@H](CCC(=O)O)C(=O)O)cc3)c2c(=O)[nH]1 [Pemetrexed] (partner 0.2 µM)
# Method in brief: as §1
Cell Line,relative viability (CX-5461 + Foretinib; first compound 0.01 µM),relative viability (CX-5461 + Foretinib; first compound 0.03162 µM),relative viability (CX-5461 + Foretinib; first compound 0.1 µM),relative viability (CX-5461 + Foretinib; first compound 0.3162 µM),relative viability (CX-5461 + Foretinib; first compound 1 µM),relative viability (IMD-0354 + OSI-027; first compound 0.04 µM),relative viability (IMD-0354 + OSI-027; first compound 0.1265 µM),relative viability (IMD-0354 + OSI-027; first compound 0.4 µM),relative viability (IMD-0354 + OSI-027; first compound 1.265 µM),relative viability (IMD-0354 + OSI-027; first compound 4 µM),relative viability (IMD-0354 + Lapatinib; first compound 0.04 µM),relative viability (IMD-0354 + Lapatinib; first compound 0.1265 µM),relative viability (IMD-0354 + Lapatinib; first compound 0.4 µM),relative viability (IMD-0354 + Lapatinib; first compound 1.265 µM),relative viability (IMD-0354 + Lapatinib; first compound 4 µM),relative viability (IMD-0354 + Pemetrexed; first compound 0.04 µM),relative viability (IMD-0354 + Pemetrexed; first compound 0.1265 µM),relative viability (IMD-0354 + Pemetrexed; first compound 0.4 µM),relative viability (IMD-0354 + Pemetrexed; first compound 1.265 µM),relative viability (IMD-0354 + Pemetrexed; first compound 4 µM)
LXF-289,0.998,1.02,0.974,0.402,0.902,0.871,0.772,0.492,0.34,0.115,0.948,0.895,0.835,0.301,0.188,0.898,0.884,0.868,0.26,0.129
NCI-H23,0.874,1.15,0.98,0.938,1.08,0.538,0.631,0.341,0.195,0.19,0.996,1.14,0.475,0.183,0.237,0.78,0.693,0.324,0.18,0.235
NCI-H322M,0.834,0.995,0.937,0.394,0.7,0.612,0.493,0.427,0.285,0.33,0.651,0.584,0.57,0.802,0.342,0.673,0.65,0.543,0.332,0.422
NCI-H358,0.671,0.666,0.791,0.236,0.336,0.676,0.826,0.403,0.124,0.141,0.541,0.441,0.413,0.273,0.192,0.174,0.172,0.175,0.138,0.126
NCI-H460,0.912,0.955,,1.04,0.0917,0.886,0.626,0.225,0.0286,0.0262,1.08,0.679,0.178,0.0562,0.0153,0.0638,0.0692,0.0923,0.0741,0.0289
NCI-H520,0.748,0.677,0.721,0.503,0.725,0.297,0.27,0.194,0.283,0.129,0.932,0.792,0.46,0.197,0.197,0.668,0.838,0.392,0.149,0.139
NCI-H596,0.896,1.18,0.888,1.03,0.97,0.881,0.812,0.429,0.793,0.246,0.989,1.22,0.823,1.07,0.474,0.546,0.526,0.344,0.461,0.396
NCI-H647,1.21,1.25,1.26,1.05,1,0.836,0.599,0.367,0.364,0.0879,1.63,0.859,0.495,0.193,0.0984,0.182,0.148,0.185,0.111,0.0986
NCI-H650,1.07,1.02,1.01,0.977,0.932,0.591,0.498,0.447,0.29,0.177,1.11,0.864,0.614,0.451,0.22,1.05,0.97,0.793,0.436,0.169
NCI-H661,0.928,0.98,0.985,0.497,0.673,0.812,0.66,0.577,0.264,0.25,0.466,0.458,0.477,0.538,0.273,0.955,0.921,0.484,0.331,0.207
NCI-H838,1.11,1.1,1.16,,0.931,0.422,0.334,0.294,0.209,0.211,1.14,0.855,0.399,0.305,0.261,0.25,0.229,0.161,0.191,0.167
NCI-H1355,1.03,1.01,1.01,0.943,0.95,0.382,0.45,0.372,0.258,0.234,1.27,1.16,0.829,0.213,0.21,1.07,1.1,0.673,0.527,0.216
NCI-H1395,0.959,0.916,0.884,0.988,0.737,0.69,0.755,0.651,0.43,0.256,1.11,1.28,0.821,0.292,0.364,0.986,0.81,0.616,0.334,0.323
NCI-H1437,1.25,1.26,,1.23,1.18,0.915,0.763,0.544,0.22,0.25,0.86,0.69,0.317,0.122,0.194,0.321,0.338,0.221,0.191,0.202
NCI-H1563,0.88,0.826,0.806,0.826,0.569,0.775,0.769,0.66,0.297,0.413,1.18,1.01,0.903,0.44,0.415,0.815,0.9,0.669,0.5,0.231
NCI-H1650,1.35,1.45,0.958,0.928,0.385,0.704,0.491,0.362,0.189,0.259,0.864,0.757,0.481,0.211,0.184,0.364,0.352,0.309,0.259,0.12

Cell Line,relative viability (CX-5461 + Foretinib; first compound 0.01 µM),relative viability (CX-5461 + Foretinib; first compound 0.03162 µM),relative viability (CX-5461 + Foretinib; first compound 0.1 µM),relative viability (CX-5461 + Foretinib; first compound 0.3162 µM),relative viability (CX-5461 + Foretinib; first compound 1 µM),relative viability (IMD-0354 + OSI-027; first compound 0.04 µM),relative viability (IMD-0354 + OSI-027; first compound 0.1265 µM),relative viability (IMD-0354 + OSI-027; first compound 0.4 µM),relative viability (IMD-0354 + OSI-027; first compound 1.265 µM),relative viability (IMD-0354 + OSI-027; first compound 4 µM),relative viability (IMD-0354 + Lapatinib; first compound 0.04 µM),relative viability (IMD-0354 + Lapatinib; first compound 0.1265 µM),relative viability (IMD-0354 + Lapatinib; first compound 0.4 µM),relative viability (IMD-0354 + Lapatinib; first compound 1.265 µM),relative viability (IMD-0354 + Lapatinib; first compound 4 µM),relative viability (IMD-0354 + Pemetrexed; first compound 0.04 µM),relative viability (IMD-0354 + Pemetrexed; first compound 0.1265 µM),relative viability (IMD-0354 + Pemetrexed; first compound 0.4 µM),relative viability (IMD-0354 + Pemetrexed; first compound 1.265 µM),relative viability (IMD-0354 + Pemetrexed; first compound 4 µM)
NCI-H1651,0.734,0.55,,0.598,0.168,0.667,0.667,0.495,0.199,0.0772,0.904,0.803,0.402,0.136,0.131,0.653,0.647,0.38,0.14,0.116
NCI-H1666,1.02,0.969,0.962,0.916,0.692,0.86,0.841,0.641,0.415,0.302,0.631,0.617,0.452,0.176,0.167,0.905,1,0.708,0.832,0.824
NCI-H1734,0.88,0.878,0.941,0.634,0.758,0.625,0.662,0.44,0.281,0.137,1.23,1.07,0.493,0.232,0.218,0.449,0.458,0.369,0.23,0.129
NCI-H1755,0.934,0.905,0.889,0.913,0.898,0.65,0.782,0.528,0.354,0.302,1.31,1.1,0.598,0.303,0.197,0.458,0.407,0.387,0.375,0.291
NCI-H1793,0.8,0.734,0.665,,0.802,0.319,0.293,0.161,0.165,0.131,0.651,0.613,0.347,0.238,0.323,0.971,0.795,0.446,0.191,0.257
NCI-H1915,1.14,1.07,1.09,1.08,1.05,0.589,0.629,0.107,0.241,0.155,0.869,0.941,0.605,0.761,0.192,0.557,0.469,0.357,0.399,0.163
NCI-H1944,0.849,0.913,0.897,0.47,0.822,0.441,0.445,0.375,0.317,0.161,0.699,0.862,,0.922,0.171,0.593,0.683,0.642,0.146,0.122
NCI-H1975,0.971,0.896,1.03,0.981,0.521,0.917,0.6,0.402,0.205,0.155,1.13,0.875,0.575,0.194,0.185,0.292,0.311,0.234,0.175,0.157
NCI-H1993,0.738,0.779,0.813,0.746,0.788,0.576,0.504,0.562,0.522,0.482,0.79,0.788,0.754,0.497,0.562,0.578,0.565,0.518,0.344,0.412
NCI-H2009,1.24,1.17,1.07,1.18,1.04,0.703,0.564,0.416,0.133,0.109,0.82,0.832,0.647,0.134,0.155,0.934,1,0.722,0.324,0.124
NCI-H2023,0.954,0.71,0.733,0.552,0.108,0.484,0.382,0.274,0.105,0.108,0.717,0.841,0.662,0.0897,0.084,0.217,0.212,0.118,0.0926,0.103
NCI-H2085,0.961,1.07,0.92,0.864,0.826,0.773,0.78,0.522,0.362,0.212,0.78,0.797,0.64,0.389,0.298,0.954,0.846,0.644,0.294,0.276
NCI-H2087,1.17,1.43,1.01,1.14,0.787,0.496,0.646,0.189,0.119,0.112,0.872,0.991,0.419,0.137,0.178,0.721,0.688,0.345,0.0911,0.106
NCI-H2126,1.28,1.3,1.16,1.39,0.838,0.752,0.609,0.594,0.588,0.524,0.793,0.803,0.655,0.768,0.378,0.74,0.722,0.569,0.37,0.266
NCI-H2170,0.964,1.01,0.944,1.07,1,0.764,0.673,0.475,0.547,0.231,0.275,0.288,0.255,0.252,0.223,0.275,0.302,0.235,0.286,0.191
NCI-H2228,0.691,1.03,0.763,0.747,0.13,0.586,0.431,0.348,0.23,0.142,1.23,1,0.632,0.306,0.241,0.379,0.37,0.292,0.22,0.125
